Laboratory results: patent publication US20030211076A1, “Compositions and methods for treatment of proliferative disorders” (priority 2003, published 2003)

Columns and labels:
[1] = system: growth-arrested Swiss 3T3 cells; experiment: FGF2-stimulated cell cycle progression, FACS analysis; type: cell-based
Method: The activity of native and LO-oxidized FGF2 on cell cycle progression was evaluated by using fluorescence activated cell sorting (FACS) analysis (Darzynkiewicz et al.). Swiss 3T3 cells were growth-arrested by incubation in 0.3% fetal bovine serum (FBS)/Dulbecco's Modified Eagle's Medium (DMEM) for 3 days. As depicted in FIGS. 6A-6C, the prepared growth-arrested cells were treated for 20 h at 37° C. with or without FGF2, LO, BAPN or their combinations as indicated. After treatment, cells were washed, suspended by treatment with trypsin, washed again and fixed in 0.5% formaldehyde/0.1% Triton X-100/PBS for 15 minutes on ice followed by incubation of samples in 10 μg propidium iodide and 20 units RNAse per ml of PBS for 60 minutes in the dark for DNA staining. The fluorescence intensities of each sample of 10,000 cells in G1, S and G2/M phases were measured by flow cytometry at the FL2 setting of the fluorescence activated cell sorting (FACS) instrument (Becton-Dickinson Corp.). […] LO was presented at 10 nM, FGF2 at 5 ng ml^−1 and BAPN at 100 μM. Data represent the means (+sd) of three separate experiments each assessed with duplicate dishes.

[2] = system: ERK1 and ERK2 MAP kinases; experiment: FGF2-stimulated MAP kinase phosphorylation, Western blot; type: cell-based
Method: Since activation of MAP kinases by FGF2 is one of the earliest mitogenic signaling events within cells (Maher), the effects of LO on FGF2-stimulated MAP kinase phosphorylation were tested by Western blot analysis using an antibody specific for phospho-extracellular signal-regulated kinases 1 and 2 (ERK1 and ERK2). The amount of total ERK1 and ERK2 MAP kinases within the same cell extracts was determined by using an antibody that recognizes both the phospho- and non-phospho-forms of ERK1 and ERK2. […] Cell extracts were prepared and equal amounts of proteins (25 μg) were analyzed by 10% SDS-PAGE. Immunoblotting was performed using antibodies specific for the active forms of ERK1 and ERK2 (A) and total ERKs (B).

[3] = system: FGF2 nuclear localization in Swiss 3T3 cells; experiment: FGF2 nuclear localization, immunochemical staining; type: cell-based
Method: After endocytosis, a fraction of exogenous FGF2 can enter the nucleus of a variety of cell types in a cell cycle-dependent manner (Mason; Rifkin et al.; Prats et al.; Stachowiak et al., 1996; Arese et al.; Baldin et al.). Thus, the possibility that oxidation of FGF2 by LO affects the nuclear localization of this growth factor was tested by using immunochemistry. In FIGS. […]

[4] = system: growth-arrested Swiss 3T3 cells; experiment: PDGF-AB-stimulated cell cycle progression, FACS analysis; type: cell-based
Method: Growth-arrested Swiss 3T3 cells were incubated for 20 h at 37° C. with or without PDGF-AB, LO, BAPN or their combinations as indicated. After incubation, FACS analysis was carried out to characterize the cell cycle progression under different conditions as described in FIG. 6. FIG. 20A represents a dose response of PDGF-AB in cell cycle progression. FIG. 20B represents the LO inhibition of PDGF-AB-stimulated cell cycle progression (the control represents cells treated with 15 ng ml^−1 PDGF-AB in the absence of added LO). FIG. 20C represents the effects of inactivation of LO by BAPN on PDGF-AB-stimulated the cell cycle progression. LO: 15 nM, PDGF-AB: 15 ng ml^−1, BAPN: 100 AM. Data represent the means (±sd) of three separate experiments each assessed with triplicate dishes.

VEC on Matrigel = experiment: Time course of angiogenic response of VEC on Matrigel without Tat stimulation; type: cell-based; details: 6, 24 and 48 h
Method: Time course studies on inhibition by LO of angiogenic response of VEC on Matrigel without Tat stimulation was also investigated. Cells (3×10^5) were plated on Matrigel-coated dishes. After 1 h incubation, various reagents were added to each culture. […] At each time point, a, control; b,10 nM LO; c,10 nM LO that was preincubated with 100 μM BAPN for 15 min at 37°; d, 100 μM BAPN, alone.

[5] = system: human recombinant FGF2 (18 kDa); experiment: LO-catalyzed crosslinking of 125I-labeled FGF2, SDS-PAGE and autoradiography; type: biochemical; details: 5 μg 125I-FGF2 with 4 μg LO, 37° C., 1 h
Method: To determine crosslinking of FGF2 monomers as a result of its oxidation by LO, human recombinant FGF2 (18 kDa) was iodinated and ^1251-labeled FGF2 (5 μg) and was then incubated with 4 μg of LO in 0.1 M sodium borate buffer, pH 8.2 in a final volume of 100 μl, at 37° C. for 1 h. The reaction was quenched by the addition of 100 μM BAPN followed by incubation at 37° C. for 30 min. Aliquots of the incubated reaction mixtures were analyzed by SDS-PAGE (15%) and autoradiography. Lane 1 represents [^125]FGF2; lane 2 represents [^1251]FGF2+LO. The relative electrophoretic mobilities of pre-stained molecular weight standards are indicated under MW.

Compound	response relative to that observed with FGF2 alone ([1]; FGF2 5 ng/ml treated with 10 nM LO and 100 μM BAPN) [%]	effect on LO inhibition of FGF2 activation of MAP kinases ([2]; 5 ng/ml FGF2 + 10 nM LO + 100 μM BAPN)	state of phosphorylation of MAP kinases ([2]; 100 μM BAPN alone)	effect on LO inhibition of nuclear translocation of FGF2 ([3]; 100 μM BAPN with LO and FGF2)	FGF2 transport to the nucleolus ([3]; BAPN in the absence of added LO)	cell cycle progression relative to the level stimulated with PDGF-AB alone ([4]; 100 μM BAPN with LO 15 nM and 0.56 nM PDGF) [%]	organization of VEC to form capillary-like structure (VEC on Matrigel; 100 μM BAPN alone)	crosslinking of FGF2 monomers [5]	maximal decrease of FGF2 stimulation of cell cycle progression ([1]; 10 nM (0.32 μg/ml) LO, 0.28 nM FGF2) [%]	levels of phospho-MAP kinases ([2]; 5 ng/ml FGF2 and 10 nM LO, 10 min)	levels of phospho-ERK1/2 ([2]; 10 nM LO without BAPN or FGF2)	levels of nuclear FGF2 ([3]; LO in the absence of exogenous FGF2 or BAPN)	intranuclear FGF2 ([3]; simultaneously incubated with FGF2 and 10 nM LO)	decrease of PDGF-AB-induced cell cycle progression ([4]; 15 nM (0.48 μg/ml) LO, 0.56 nM PDGF-AB) [%]	organization of VEC to form capillary-like structure (VEC on Matrigel; 10 nM LO preincubated with 100 μM BAPN (BAPN-inactivated))	organization of VEC to form capillary-like structure (VEC on Matrigel; 10 nM active LO)
N#CCCN [BAPN, β-Aminopropionitrile, reference compound]	82±6	abolished	did not affect	prevented	increased FGF2 transport to the nucleolus	100.4	did not have significant effects									
lysyl oxidase [LO]								induced the appearance of covalent dimers, oligomers and higher polymers	80	reduced	slightly increased	reduced levels of nuclear FGF2	did not exhibit enhanced levels of intranuclear FGF2	73	strong inhibitory effects	strong inhibitory effects
